{
  "source": "paper PMC8141582",
  "about": "“Synergistic Effect of Statins and Abiraterone Acetate on the Growth Inhibition of Neuroblastoma via Targeting Androgen Receptor” (Frontiers in Oncology, 2021)",
  "key": {"[1]": {"system": "A549 cells", "parameters": "method as in Supplement [5]; key: Positive: Simvastatin alone inhibited the progression of cancer; Negative: Simvastatin alone could not inhibit the progression of cancer", "details": "Lung Adenocarcinoma, 10.0 mg/kg/day, i.v; ref Supplement [5]; cited from earlier work"}, "[2]": {"system": "MDA-MB-231 cells", "parameters": "key: Positive: Simvastatin alone inhibited the progression of cancer; Negative: Simvastatin alone could not inhibit the progression of cancer", "details": "Breast Cancer, cited from earlier work"}, "[3]": {"system": "PC-3 cells", "parameters": "key to Results (simvastatin alone): Positive: Simvastatin alone inhibited the progression of cancer; Negative: Simvastatin alone could not inhibit the progression of cancer", "details": "Prostate Cancer, i.p., cited from earlier work"}, "[4]": {"system": "22RV1 cells", "parameters": "key to Results (simvastatin alone): Positive: Simvastatin alone inhibited the progression of cancer; Negative: Simvastatin alone could not inhibit the progression of cancer", "details": "Prostate Cancer, 25.0 mg/kg/day, i.p.; ref Supplement [15]; cited from earlier work"}, "[5]": {"system": "SW 480 cells", "parameters": "method as in Supplement [10]; key: Positive: Simvastatin alone inhibited the progression of cancer; Negative: Simvastatin alone could not inhibit the progression of cancer", "details": "Colorectal Cancer, 6.0 mg/kg/day, oral; ref Supplement [10]; cited from earlier work"}, "[6]": {"system": "HCT116 or HT29 cells", "parameters": "method as in Supplement [11]; key: Positive: Simvastatin alone inhibited the progression of cancer; Negative: Simvastatin alone could not inhibit the progression of cancer", "details": "Colorectal Cancer, 50.0 mg/kg/day, oral; ref Supplement [11]; cited from earlier work"}, "[7]": {"system": "N2a cells", "assay": "MTT cell viability assay, N2a", "format": "cell-based, mouse", "details": "Mus musculus", "procedure": "N2a, SH-SY5Y, SK-N-BE (2), 10A, HUVEC, HL7702 cells were plated in 96-well plates at 8,000 cells/well, respectively, in complete media in triplicate wells for each dose and cultured for 18 h. The neuroblastoma cell lines, N2a, SH-SY5Y, and SK-N-BE (2), and non-cancer cell lines, 10A, HUVEC, and HL7702, were treated with simvastatin and fluvastatin in a range of doses from 0 to 20 μM and with AA from 0 to 30 μM; N2a, SH-SY5Y SK-N-BE (2), were treated with rosuvastatin in a range of doses from 0 to 100 μM for 72 h. Statins dissolved in DMSO and AA dissolved in ethanol. After 72 h treatment, the medium was added 0.5 mg/ml MTT reagent and incubated at 37°C for 4 h. Subsequently, the supernatant was aspirated, and cells were lysed in 150 µl DMSO, then shaken 10 min at 37°C. The optical density (OD) was measured at 570 and 630 nm using a plate reader."}, "[8]": {"system": "SH-SY5Y xenografts", "assay": "SH-SY5Y tumor xenograft study", "format": "in vivo, BALB/c nude mice", "details": "Sim 20 mg/kg, oral daily", "text": "Four weeks old BALB/c nude mice of both sexes were purchased from Vital River Laboratory Animal Technology Co., Ltd. (Beijing, China) and maintained under specific pathogen-free conditions. Male mice were castrated 5 days before cell inoculation. […] Then, all the mice were divided randomly into four groups: control group (Placebo, n = 7), simvastatin group (Sim, n = 6), abiraterone acetate group (AA, n = 6), and combination group (Com, n = 6) including three male mice in each group. […] AA 150 mg/kg/day; combined simvastatin 10 mg/kg/day with AA 75 mg/kg/day. Tumor was harvested after 10 days of dosing, then fixed half of a tumor in 4% buffered formaldehyde for IHC and the other half was stored −80°C for RT-PCR and Western Blots analysis."}, "[9]": {"system": "Caki-1-staR cells", "parameters": "method as in Supplement [13]; key: Positive: Simvastatin alone inhibited the progression of cancer; Negative: Simvastatin alone could not inhibit the progression of cancer", "details": "Renal Cancer, 6.7 mg/kg/day, i.p.; ref Supplement [13]; cited from earlier work"}, "[10]": {"system": "KHOS or NP cells", "parameters": "method as in Supplement [24]; key: Positive: Simvastatin alone inhibited the progression of cancer; Negative: Simvastatin alone could not inhibit the progression of cancer", "details": "Osteosarcoma, 10.0 mg/kg, route unknown; ref Supplement [24]; cited from earlier work"}, "[11]": {"system": "TSC2-null cells from the primary tumors", "parameters": "method as in Supplement [3]; key: Positive: Simvastatin alone inhibited the progression of cancer; Negative: Simvastatin alone could not inhibit the progression of cancer", "details": "Pulmonary Lymphangioleiomyomatosis, 100.0 mg/kg/day, oral; ref Supplement [3]; cited from earlier work"}},
  "note": "Like-named read-outs stand apart in the source and are kept apart here.",
  "data": [
    {"smiles": "CCC(C)(C)C(=O)O[C@H]1C[C@@H](C)C=C2C=C[C@H](C)[C@H](CC[C@@H]3C[C@@H](O)CC(=O)O3)[C@H]21", "note": "[Simvastatin]", "values": [
      {"measurement": "Results (simvastatin alone)", "setting": "[1]", "result": "Positive"},
      {"measurement": "Results (simvastatin alone)", "setting": "[2]; 5.0 mg/kg/day, i.v., ref Supplement [23]", "result": "Positive"},
      {"measurement": "Results (simvastatin alone)", "setting": "[2]; 5.0 mg/kg/day, route unknown, ref Supplement [21]", "result": "Positive"},
      {"measurement": "Results (simvastatin alone)", "setting": "[2]; 10.0 mg/kg/day, oral, ref Supplement [20]", "result": "Positive"},
      {"measurement": "Results (simvastatin alone)", "setting": "[2]; 200.0 mg/kg/day, oral, ref Supplement [22]", "result": "Positive"},
      {"measurement": "Results (simvastatin alone)", "setting": "[3]; 2.0 mg/kg/day or 4.0 mg/kg/day, ref Supplement [18]", "result": "Positive"},
      {"measurement": "Results (simvastatin alone)", "setting": "[3]; 2.1 mg/kg/day or 21.0 mg/kg/day, ref Supplement [19]", "result": "Positive"},
      {"measurement": "Results (simvastatin alone)", "setting": "[3]; 4.0 mg/kg/day, ref Supplement [17]", "result": "Positive"},
      {"measurement": "Results (simvastatin alone)", "setting": "[4]", "result": "Positive"},
      {"measurement": "Results (simvastatin alone)", "setting": "[5]", "result": "Positive"},
      {"measurement": "Results (simvastatin alone)", "setting": "[6]", "result": "Positive"},
      {"measurement": "IC50", "setting": "[7]; N2a, NB cell line, MTT, 72 h", "result": 6.07, "unit": "µM"},
      {"measurement": "inhibition at 1.5 µM", "setting": "[7]; N2a cells, 1.5 μM simvastatin, read-out: inhibition rate", "result": "~10", "unit": "%"},
      {"measurement": "tumor growth", "setting": "[8]", "result": "tumor growth delay"},
      {"measurement": "Results (simvastatin alone)", "setting": "[9]", "result": "Negative"},
      {"measurement": "Results (simvastatin alone)", "setting": "[10]", "result": "Positive"},
      {"measurement": "Results (simvastatin alone)", "setting": "[11]", "result": "Positive"}
    ]}
  ]
}
